Like-named read-outs stand apart in the source and are kept apart here.
Key:
[1] = tested on: smallflower umbrella sedge; assay: Test C flooded paddy test; format: in vivo, Cyperus difformis; details: for pest or weed control at 62 g/ha / pest or weed control at 125 g/ha / pest or weed control at 250 g/ha / pest or weed control at 500 g/ha: Cyperus difformis; for pest or weed control at 500 g/ha / Plant response rating, Sedge, Umbrella: 500 g ai/ha
velvetleaf = assay: Test A pre-/postemergence herbicide test; format: in vivo, Abutilon theophrasti; details: for pest or weed control at 2000 g/ha / pest or weed control at 500 g/ha: Abutilon theophrasti, 240 h
Outline: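 Visual injury scores on a 0–100 scale (100 = complete control) taken about ten days post-treatment in greenhouse against untreated controls; dash means no result. Treatments: preemergence soil spray and postemergence spray to runoff on one- to two-leaf plants 2 to 10 cm tall, surfactant-containing formulation.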

rice = assay: Test C flooded paddy test; format: in vivo, Oryza sativa; details: for plant injury at 62 g/ha / plant injury at 125 g/ha / plant injury at 250 g/ha / plant injury at 500 g/ha: Oryza sativa; for plant injury at 500 g/ha / Plant response rating, Rice: 500 g ai/ha
Outline: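 Postemergence sprays applied to plants 2 to 18 cm tall (1- to 4-leaf stage); paddy species grown to 2-leaf stage under flooding. After 12 to 14 days in greenhouse, visual rating versus untreated controls on 0–100 scale (0 no effect, 100 complete control).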

pigweed = assay: Test C pre-/postemergence herbicide test; format: in vivo, Amaranthus retroflexus
From the text: (§1) Seeds of plant species selected from bermudagrass (Cynodon dactylon (L.) Pers.), Surinam grass (Urochloa decumbens (Staph) R. D. Webster, previously named Brachiaria decumbens Stapf), cocklebur (Xanthium strumarium L.), corn (Zea mays L.), large crabgrass (Digitaria sanguinalis (L.) Scop.), woolly cupgrass (Eriochloa villosa (Thunb.) Kunth), giant foxtail (Setaria faberi Herrm.), goosegrass (Eleusine indica (L.) Gaertn.), johnsongrass (Sorghum halepense (L.) Pers.), kochia (Kochia scoparia (L.) Schrad.), lambsquarters (Chenopodium album L.), morningglory (Ipomoea coccinea L.), eastern black nightshade (Solanum ptycanthum Dunal), yellow nutsedge (Cyperus esculentus L.), pigweed (Amaranthus retroflexus L.), common ragweed (Ambrosia elatior L.), soybean (Glycine max (L.) Merr.), common (oilseed) sunflower (Helianthus annuus L.) and velvetleaf (Abutilon theophrasti Medik.) were planted and treated preemergence with test chemicals formulated in a non-phytotoxic solvent mixture which included a surfactant.
(§2) At the same time, plants selected from these crop and weed species and also winter barley (Hordeum vulgare L.), blackgrass (Alopecurus myosuroides Huds.), canarygrass (Phalaris minor Retz.), chickweed (Stellaria media (L.) Vill.), downy bromegrass (Bromus tectorum L.), green foxtail (Setaria viridis (L.) Beauv.), Italian ryegrass (Lolium multiflorum Lam.), wheat (Triticum aestivum L.), wild oat (Avenafatua L.) and windgrass (Apera spica-venti (L.) Beauv.) were treated with postemergence applications of some of the test chemicals formulated in the same manner. Plants ranged in height from 2 to 18 cm (1- to 4-leaf stage) for postemergence treatments. Plant species in the flooded paddy test consisted of rice (Oryza sativa), smallflower umbrella sedge (Cyperus difformis L.), ducksalad (Heteranthera limosa (Sw.) Willd.) and barnyardgrass (Echinochloa crus-galli (L.) Beauv.) grown to the 2-leaf stage for testing. Treated plants and controls were maintained in a greenhouse for 12 to 14 days, after which time all species were compared to controls and visually evaluated. Plant response ratings, summarized in Table C, are based on a scale of 0 to 100 where 0 is no effect and 100 is complete control. A dash (-) response means no test result.

giant foxtail = assay: Test C pre-/postemergence herbicide test; format: in vivo, Setaria faberi
From the text: as §1, §2

lambsquarters = assay: Test C pre-/postemergence herbicide test; format: in vivo, Chenopodium album
From the text: as §1, §2

woolly cupgrass = assay: Test C pre-/postemergence herbicide test; format: in vivo, Eriochloa villosa
From the text: as §1, §2

large crabgrass = assay: Test C pre-/postemergence herbicide test; format: in vivo, Digitaria sanguinalis
From the text: as §1, §2

[2] = visual rating after 12 to 14 days, scale 0 to 100 (0 no effect, 100 complete control), read-out: Plant response rating, Sedge, Umbrella
[3] = post-emergence, Postemergence, 2000 g ai/ha, 0 to 100 scale, 0 no effect, 100 complete control, read-out: Plant response rating, Velvetleaf
[4] = visual rating after 12 to 14 days, scale 0 to 100 (0 no effect, 100 complete control), read-out: Plant response rating, Rice
[5] = 62 g ai/ha, scale 0 to 100 (0 no effect, 100 complete control)
[6] = 125 g ai/ha, scale of 0 to 100, 0 is no effect, 100 is complete control
[7] = 250 g ai/ha, scale of 0 to 100, 0 is no effect, 100 is complete control
[8] = visual rating after 12 to 14 days, scale 0 to 100 (0 no effect, 100 complete control)
[9] = Postemergence, 2000 g ai/ha, 0 to 100 scale, 0 no effect, 100 complete control
[10] = Preemergence, 500 g ai/ha, visual rating, 0 to 100 scale (0 no effect, 100 complete control)
[11] = Preemergence, 2000 g ai/ha, visual rating, 0 to 100 scale (0 no effect, 100 complete control)
[12] = Postemergence, 500 g ai/ha, scale 0 to 100
[13] = Postemergence, 250 g ai/ha, scale 0 to 100, 0 no effect, 100 complete control
[14] = postemergence, 125 g ai/ha, scale 0 to 100
[15] = postemergence, 62 g ai/ha, scale 0 to 100
[16] = 125 g ai/ha, scale 0 to 100 (0 no effect, 100 complete control)

## CCn1nc(C(C)(C)C)cc1C(=O)Nc1cccc(C(=O)NCC(F)(F)F)c1 [Compound 43, 3-(1,1-dimethylethyl)-1-ethyl-N-[3-[[(2,2,2-trifluoroethyl)amino]carbonyl]-phenyl]-1H-pyrazole-5-carboxamide]
[1]; 62 g ai/ha, scale 0 to 100 (0 no effect, 100 complete control), read-out: Sedge, Umbrella plant response rating
  pest or weed control at 62 g/ha: 30%
[1]; 125 g ai/ha, scale of 0 to 100, 0 is no effect, 100 is complete control, read-out: Sedge, Umbrella plant response rating
  pest or weed control at 125 g/ha: 50%
[1]; 250 g ai/ha, visual rating after 12 to 14 days, scale 0 to 100 (0 no effect, 100 complete control), read-out: Plant response rating, Sedge, Umbrella
  pest or weed control at 250 g/ha: 70%
[1]; [2]
  pest or weed control at 500 g/ha: 80%
velvetleaf; [3]
  pest or weed control at 2000 g/ha: 30%
velvetleaf; pre-emergence, Preemergence, 500 g ai/ha, visual rating, 0 to 100 scale (0 no effect, 100 complete control), read-out: Velvetleaf plant response rating
  pest or weed control at 500 g/ha: 5%
velvetleaf; pre-emergence, Preemergence, 2000 g ai/ha, 0 to 100 scale, 0 no effect, 100 complete control, read-out: Velvetleaf plant response rating
  pest or weed control at 2000 g/ha: 60%
rice; 62 g ai/ha, scale 0 to 100 (0 no effect, 100 complete control), read-out: Rice plant response rating
  plant injury at 62 g/ha: 0%
rice; 125 g ai/ha, scale of 0 to 100, 0 is no effect, 100 is complete control, read-out: Rice plant response rating
  plant injury at 125 g/ha: 0%
rice; 250 g ai/ha, visual rating after 12 to 14 days, scale 0 to 100 (0 no effect, 100 complete control), read-out: Plant response rating, Rice
  plant injury at 250 g/ha: 20%
rice; [4]
  plant injury at 500 g/ha: 20%

## CCOC(=O)c1cccc(NC(=O)c2cc(C(C)(C)C)nn2CCF)c1 [Compound 79]
[1]; [5]
  Sedge, Umbrella plant response rating: 75
[1]; [6]
  Sedge, Umbrella plant response rating: 75
[1]; [7]
  Sedge, Umbrella plant response rating: 80
[1]; [8]
  Plant response rating, Sedge, Umbrella: 85
velvetleaf; [9]
  Plant response rating, Velvetleaf: 50
velvetleaf; [10]
  Velvetleaf plant response rating: 20
velvetleaf; [11]
  Velvetleaf plant response rating: 70
rice; [5]
  Rice plant response rating: 20
rice; [6]
  Rice plant response rating: 20
rice; [7]
  Rice plant response rating: 20
rice; [8]
  Plant response rating, Rice: 30

## CC(=NO)c1cccc(NC(=O)c2cc(C(C)(C)C)nn2CC(F)(F)F)c1 [Compound 112]
pigweed; [12]
  Pigweed plant response rating: 100
pigweed; [13]
  Plant response rating, Pigweed: 100
pigweed; [14]
  Plant response rating, Pigweed: 60
pigweed; [15]
  Plant response rating, Pigweed: 10
Giant foxtail; [12]
  Foxtail, Giant plant response rating: 50
Giant foxtail; [13]
  Plant response rating, Foxtail, Giant: 50
Giant foxtail; [14]
  Plant response rating, Foxtail, Giant: 50
Giant foxtail; [15]
  Plant response rating, Foxtail, Giant: 30
[1]; [5]
  Sedge, Umbrella plant response rating: 0
[1]; [6]
  Sedge, Umbrella plant response rating: 0
[1]; [7]
  Sedge, Umbrella plant response rating: 25
[1]; [8]
  Plant response rating, Sedge, Umbrella: 50
lambsquarters; [12]
  Lambsquarters plant response rating: 100
lambsquarters; [13]
  Plant response rating, Lambsquarters: 100
lambsquarters; [14]
  Plant response rating, Lambsquarters: 20
lambsquarters; [15]
  Plant response rating, Lambsquarters: 20
velvetleaf; Postemergence, 500 g ai/ha, 0 to 100 scale, 0 no effect, 100 complete control
  Velvetleaf plant response rating: 25
velvetleaf; [9]
  Plant response rating, Velvetleaf: 35
velvetleaf; [10]
  Velvetleaf plant response rating: 25
velvetleaf; [11]
  Velvetleaf plant response rating: 50
Woolly cupgrass; [12]
  Cupgrass, Woolly plant response rating: 70
Woolly cupgrass; [13]
  Plant response rating, Cupgrass, Woolly: 60
Woolly cupgrass; [14]
  Plant response rating, Cupgrass, Woolly: 30
Woolly cupgrass; [15]
  Plant response rating, Cupgrass, Woolly: 0
Large crabgrass; [12]
  Crabgrass, Large plant response rating: 30
Large crabgrass; [13]
  Plant response rating, Crabgrass, Large: 30
Large crabgrass; [14]
  Plant response rating, Crabgrass, Large: 10
Large crabgrass; [15]
  Plant response rating, Crabgrass, Large: 0
rice; [5]
  Rice plant response rating: 0
rice; [6]
  Rice plant response rating: 0
rice; [7]
  Rice plant response rating: 10
rice; [8]
  Plant response rating, Rice: 30

## CCn1nc(C(C)(C)C)cc1C(=O)Nc1cccc(C(=O)OC)n1 [Compound 143, methyl 6-[[[3-(1,1-dimethylethyl)-1-ethyl-1H-pyrazol-5-yl]carbonyl]amino]-2-pyridinecarboxylate]
velvetleaf; post-emergence, Postemergence, 500 g ai/ha, 0 to 100 scale, 0 no effect, 100 complete control, read-out: Velvetleaf plant response rating
  pest or weed control at 500 g/ha: 0%
velvetleaf; [3]
  pest or weed control at 2000 g/ha: 15%
velvetleaf; pre-emergence, Preemergence, 2000 g ai/ha, visual rating, 0 to 100 scale (0 no effect, 100 complete control), read-out: Velvetleaf plant response rating
  pest or weed control at 2000 g/ha: 0%
velvetleaf; pre-emergence, preemergence, 500 g ai/ha, visual injury, 0 to 100 scale (0 no effect, 100 complete control), read-out: Velvetleaf plant response rating
  pest or weed control at 500 g/ha: 0%

## CCc1nn(C(C)C)nc1C(=O)Nc1cccc(C(=O)N(C)C)c1 [Compound 358, N-[3-[(dimethylamino)carbonyl)phenyl]-5-ethyl-2-(1-methylethyl)-2H-1,2,3-triazole-4-carboxamide]
[1]; 62 g ai/ha, scale 0 to 100, read-out: Sedge, Umbrella plant response rating
  pest or weed control at 62 g/ha: 15%
[1]; 125 g ai/ha, scale 0 to 100 (0 no effect, 100 complete control), read-out: Sedge, Umbrella plant response rating
  pest or weed control at 125 g/ha: 85%
[1]; 250 g ai/ha, scale of 0 to 100, 0 is no effect, 100 is complete control, read-out: Sedge, Umbrella plant response rating
  pest or weed control at 250 g/ha: 85%
[1]; [2]
  pest or weed control at 500 g/ha: 85%
rice; 62 g ai/ha, scale 0 to 100, read-out: Rice plant response rating
  plant injury at 62 g/ha: 20%
rice; 125 g ai/ha, scale 0 to 100 (0 no effect, 100 complete control), read-out: Rice plant response rating
  plant injury at 125 g/ha: 65%
rice; 250 g ai/ha, scale of 0 to 100, 0 is no effect, 100 is complete control, read-out: Rice plant response rating
  plant injury at 250 g/ha: 70%
rice; [4]
  plant injury at 500 g/ha: 85%

## C#CCNC(=O)c1cccc(NC(=O)c2nn(C(C)(C)C)nc2CC)c1 [Compound 380]
[1]; 62 g ai/ha, scale 0 to 100
  Sedge, Umbrella plant response rating: 80
[1]; [16]
  Sedge, Umbrella plant response rating: 85
[1]; [7]
  Sedge, Umbrella plant response rating: 85
[1]; [8]
  Plant response rating, Sedge, Umbrella: 90
rice; 62 g ai/ha, scale 0 to 100
  Rice plant response rating: 45
rice; [16]
  Rice plant response rating: 65
rice; [7]
  Rice plant response rating: 70
rice; [8]
  Plant response rating, Rice: 75

## C#CCOc1cccc(NC(=O)c2cc(C(C)(C)C)nn2CC)c1 [Compound 411]
[1]; 62 g ai/ha, scale 0 to 100
  Sedge, Umbrella plant response rating: 60
[1]; [16]
  Sedge, Umbrella plant response rating: 75
[1]; [7]
  Sedge, Umbrella plant response rating: 80
[1]; [8]
  Plant response rating, Sedge, Umbrella: 85
rice; 62 g ai/ha, scale 0 to 100
  Rice plant response rating: 0
rice; [16]
  Rice plant response rating: 25
rice; [7]
  Rice plant response rating: 35
rice; [8]
  Plant response rating, Rice: 35

## C=CCOc1cccc(NC(=O)c2cc(C(C)(C)C)nn2CC)c1 [Compound 412]
[1]; 62 g ai/ha, scale 0 to 100
  Sedge, Umbrella plant response rating: 70
[1]; [16]
  Sedge, Umbrella plant response rating: 75
[1]; [7]
  Sedge, Umbrella plant response rating: 80
[1]; [8]
  Plant response rating, Sedge, Umbrella: 95
rice; 62 g ai/ha, scale 0 to 100
  Rice plant response rating: 15
rice; [16]
  Rice plant response rating: 20
rice; [7]
  Rice plant response rating: 20
rice; [8]
  Plant response rating, Rice: 50

Source: patent US20060069132A1, “Azolecarboxamide herbicides” (priority 2004, published 2006)
